Reference: ChEMBL document CHEMBL1201862, “PubChem BioAssay data set” (2004)
Calls of active or inactive are those of the source.

Assays:
[1] = cytotoxicity toward NIH3T3 fibroblasts, dose response, counter-screen, cell-based, ATP luminescence, mouse fibroblasts (AID 2010); type: functional;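 note: cells exposed to compound for about 90 hours before reading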
[2] = system: HEK293; assay: cells; type: functional, cell-based; details: Homo sapiens
[3] = system: HEK293; assay: NOD1 signaling inhibitors, primary screen, cell-based, luminescence, uHTS (AID 1578); type: functional; details: Homo sapiens
[4] = system: HEK293; assay: NOD2 signaling inhibitors in MDP-stimulated cells, cell-based, uHTS, luminescence (AID 2001); type: functional; details: Homo sapiens
[5] = system: HEK293; assay: cells; type: functional, cell-based; details: Homo sapiens; remark: listed apart in the source
[6] = inhibitors of intracellular T. cruzi replication, confirmation, NIH3T3 host cells, beta-gal luminescence (AID 2044); type: functional, cell-based;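 note: intracellular parasites grown in NIH/3T3 mouse fibroblasts as host cells; luminescent beta-galactosidase reporter signal from transgenic T. cruzi replicating inside host cells; inhibitors lower the luminescence signal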
[7] = system: HEK293; assay: cells; type: functional, cell-based; details: Homo sapiens; remark: listed apart in the source
[8] = biological target: Nucleotide-binding oligomerization domain-containing protein 2 (Homo sapiens, UniProt Q9HC29); assay: NOD2 signaling inhibitors, cell-based, luminescence, uHTS, HEK293 (AID 1566); type: functional
Nucleotide-binding oligomerization domain-containing protein 2, sequence (Q9HC29 whole entry, the tested form may be a part): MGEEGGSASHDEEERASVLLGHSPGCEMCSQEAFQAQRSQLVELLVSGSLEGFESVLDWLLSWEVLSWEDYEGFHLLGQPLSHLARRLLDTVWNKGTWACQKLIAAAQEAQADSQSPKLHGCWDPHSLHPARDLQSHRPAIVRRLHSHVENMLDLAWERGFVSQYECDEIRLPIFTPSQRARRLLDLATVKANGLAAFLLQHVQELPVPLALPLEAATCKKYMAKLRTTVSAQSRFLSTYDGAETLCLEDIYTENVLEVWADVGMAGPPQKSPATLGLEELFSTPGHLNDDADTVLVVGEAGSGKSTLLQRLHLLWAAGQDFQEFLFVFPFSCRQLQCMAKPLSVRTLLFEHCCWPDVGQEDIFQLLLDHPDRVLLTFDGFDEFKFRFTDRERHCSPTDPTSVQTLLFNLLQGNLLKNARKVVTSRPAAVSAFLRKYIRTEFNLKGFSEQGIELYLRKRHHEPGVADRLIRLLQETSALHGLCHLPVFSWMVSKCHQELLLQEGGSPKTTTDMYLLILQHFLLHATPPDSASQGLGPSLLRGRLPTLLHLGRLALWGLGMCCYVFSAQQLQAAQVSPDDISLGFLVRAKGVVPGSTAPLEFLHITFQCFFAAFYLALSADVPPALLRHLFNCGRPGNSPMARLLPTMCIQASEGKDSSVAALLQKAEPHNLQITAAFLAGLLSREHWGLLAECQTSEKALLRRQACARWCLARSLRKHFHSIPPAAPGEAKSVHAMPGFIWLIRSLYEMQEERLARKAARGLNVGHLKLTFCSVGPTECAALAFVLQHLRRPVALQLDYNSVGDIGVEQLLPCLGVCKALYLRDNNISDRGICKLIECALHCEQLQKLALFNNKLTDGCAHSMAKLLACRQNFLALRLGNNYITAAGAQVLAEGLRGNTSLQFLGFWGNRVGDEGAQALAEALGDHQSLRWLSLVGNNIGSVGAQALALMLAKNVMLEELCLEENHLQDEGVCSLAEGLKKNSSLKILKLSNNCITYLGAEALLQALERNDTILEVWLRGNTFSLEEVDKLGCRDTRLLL

[9] = THP-1 cell cytotoxicity, dose response, cytotoxicity control for Vif-APOBEC3G degradation inhibitor project, THP-1 cells (AID 1117359); type: functional; details: Human immunodeficiency virus 1, THP-1
[10] = biological target: T1, Low molecular weight phosphotyrosine protein phosphatase (Homo sapiens, UniProt P24666); type: functional; details: read-out: IC50_Mean;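 note: Dose-response confirmation assay measuring inhibition of LMPTP enzyme activity by fluorescence intensity read-out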
T1 sequence (P24666 whole entry): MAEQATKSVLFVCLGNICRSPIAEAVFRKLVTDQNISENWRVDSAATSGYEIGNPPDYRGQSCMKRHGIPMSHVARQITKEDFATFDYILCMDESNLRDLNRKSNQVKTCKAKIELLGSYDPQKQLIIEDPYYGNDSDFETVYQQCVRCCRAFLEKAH

[11] = biological target: T2, Short transient receptor potential channel 4 (Mus musculus, UniProt Q9QUQ5); assay: mouse TRPC4 channel activators, dose response, cell-based, HEK293 TRPC4/mu-opioid, Fluo-4 calcium (AID 434937); type: functional
T2 sequence (Q9QUQ5 whole entry): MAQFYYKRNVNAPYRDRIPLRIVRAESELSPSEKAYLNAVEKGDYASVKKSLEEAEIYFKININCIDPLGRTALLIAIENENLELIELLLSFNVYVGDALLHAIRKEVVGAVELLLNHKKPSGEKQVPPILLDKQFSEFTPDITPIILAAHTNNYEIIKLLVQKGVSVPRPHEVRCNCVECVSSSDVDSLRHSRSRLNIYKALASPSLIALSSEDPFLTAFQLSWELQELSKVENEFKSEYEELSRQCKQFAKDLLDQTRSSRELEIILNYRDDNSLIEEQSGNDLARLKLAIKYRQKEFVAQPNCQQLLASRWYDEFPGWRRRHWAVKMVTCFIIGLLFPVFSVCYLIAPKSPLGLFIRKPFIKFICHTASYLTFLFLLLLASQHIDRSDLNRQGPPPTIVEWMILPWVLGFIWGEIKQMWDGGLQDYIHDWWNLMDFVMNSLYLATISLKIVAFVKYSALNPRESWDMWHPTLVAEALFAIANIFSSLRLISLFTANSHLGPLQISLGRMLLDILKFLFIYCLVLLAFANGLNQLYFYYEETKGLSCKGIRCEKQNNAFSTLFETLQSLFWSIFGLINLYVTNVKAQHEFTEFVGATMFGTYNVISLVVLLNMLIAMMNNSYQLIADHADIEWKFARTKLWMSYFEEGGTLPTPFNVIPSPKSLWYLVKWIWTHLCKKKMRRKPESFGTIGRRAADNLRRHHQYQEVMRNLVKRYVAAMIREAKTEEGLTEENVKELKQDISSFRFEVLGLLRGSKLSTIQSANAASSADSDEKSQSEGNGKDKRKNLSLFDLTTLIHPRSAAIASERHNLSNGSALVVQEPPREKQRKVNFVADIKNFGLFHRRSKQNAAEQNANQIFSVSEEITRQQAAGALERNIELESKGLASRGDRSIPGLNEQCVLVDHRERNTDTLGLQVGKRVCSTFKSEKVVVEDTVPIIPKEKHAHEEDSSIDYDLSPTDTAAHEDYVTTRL

[12] = HEp-2 cell cytotoxicity, dose response, cytotoxicity control for RSV inhibitor project, HTS (AID 2410); type: functional; details: human respiratory syncytial virus
[13] = system: Vero; assay: cells; type: functional, cell-based; details: Chlorocebus sabaeus
[14] = biological target: Ras and Rab interactor 1/Tyrosine-protein kinase ABL1 (Homo sapiens, UniProt P00519+Q13671); type: functional;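 note: biochemical TR-FRET dose-response test measuring inhibition of binding between Rin1 and Abl proteins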
Ras and Rab interactor 1/Tyrosine-protein kinase ABL1, sequence (P00519 whole entry): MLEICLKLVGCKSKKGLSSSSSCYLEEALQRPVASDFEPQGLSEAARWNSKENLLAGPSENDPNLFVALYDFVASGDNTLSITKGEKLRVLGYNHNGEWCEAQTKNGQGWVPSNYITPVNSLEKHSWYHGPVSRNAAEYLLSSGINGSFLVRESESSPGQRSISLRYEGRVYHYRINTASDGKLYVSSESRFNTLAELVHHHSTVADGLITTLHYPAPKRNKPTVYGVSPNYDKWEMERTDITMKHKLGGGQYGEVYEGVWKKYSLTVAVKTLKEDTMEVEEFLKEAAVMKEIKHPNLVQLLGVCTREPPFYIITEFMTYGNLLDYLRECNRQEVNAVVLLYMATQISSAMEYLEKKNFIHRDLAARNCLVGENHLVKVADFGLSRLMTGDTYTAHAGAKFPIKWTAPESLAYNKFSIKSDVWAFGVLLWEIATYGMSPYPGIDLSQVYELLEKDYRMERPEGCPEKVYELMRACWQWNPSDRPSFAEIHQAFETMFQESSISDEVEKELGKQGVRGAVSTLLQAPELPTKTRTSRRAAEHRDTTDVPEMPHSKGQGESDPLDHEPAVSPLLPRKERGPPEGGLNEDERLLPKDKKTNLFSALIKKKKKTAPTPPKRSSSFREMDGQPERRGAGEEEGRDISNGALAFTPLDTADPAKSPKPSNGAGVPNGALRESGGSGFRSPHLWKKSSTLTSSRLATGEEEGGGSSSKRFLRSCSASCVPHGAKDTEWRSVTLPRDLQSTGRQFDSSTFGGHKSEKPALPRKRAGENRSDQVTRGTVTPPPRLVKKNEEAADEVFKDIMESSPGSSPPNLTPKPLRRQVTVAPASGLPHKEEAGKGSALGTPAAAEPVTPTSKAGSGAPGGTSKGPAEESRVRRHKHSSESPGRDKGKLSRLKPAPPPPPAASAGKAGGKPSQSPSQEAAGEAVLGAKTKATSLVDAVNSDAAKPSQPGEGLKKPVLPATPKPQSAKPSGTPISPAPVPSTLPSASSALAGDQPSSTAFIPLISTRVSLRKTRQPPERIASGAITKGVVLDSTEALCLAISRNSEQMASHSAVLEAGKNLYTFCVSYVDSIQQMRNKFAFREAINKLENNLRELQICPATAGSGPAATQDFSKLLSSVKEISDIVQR
Ras and Rab interactor 1/Tyrosine-protein kinase ABL1, sequence (Q13671 whole entry): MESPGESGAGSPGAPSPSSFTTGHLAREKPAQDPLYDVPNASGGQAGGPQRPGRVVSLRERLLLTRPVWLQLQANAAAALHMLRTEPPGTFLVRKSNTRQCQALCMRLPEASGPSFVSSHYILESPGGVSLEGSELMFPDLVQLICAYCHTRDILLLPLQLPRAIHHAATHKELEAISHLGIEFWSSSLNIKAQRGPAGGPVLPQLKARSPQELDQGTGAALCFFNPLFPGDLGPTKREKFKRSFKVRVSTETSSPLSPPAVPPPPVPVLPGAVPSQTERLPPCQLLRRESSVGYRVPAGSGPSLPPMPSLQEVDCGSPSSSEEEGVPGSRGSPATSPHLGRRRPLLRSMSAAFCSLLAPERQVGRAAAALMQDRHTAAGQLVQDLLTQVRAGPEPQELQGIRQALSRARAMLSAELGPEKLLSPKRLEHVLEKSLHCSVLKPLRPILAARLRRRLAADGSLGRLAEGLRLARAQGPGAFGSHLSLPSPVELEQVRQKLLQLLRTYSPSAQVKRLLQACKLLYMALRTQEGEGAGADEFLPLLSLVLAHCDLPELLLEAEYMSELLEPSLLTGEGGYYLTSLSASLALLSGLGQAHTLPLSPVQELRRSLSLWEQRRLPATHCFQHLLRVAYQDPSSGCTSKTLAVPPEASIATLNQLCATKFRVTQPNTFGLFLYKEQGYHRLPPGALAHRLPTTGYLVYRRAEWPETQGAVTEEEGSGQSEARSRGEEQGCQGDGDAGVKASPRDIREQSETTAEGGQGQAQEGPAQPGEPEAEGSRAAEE

[15] = biological target: Glucose-6-phosphate 1-dehydrogenase (Homo sapiens, UniProt P11413); assay: human G6PD enzyme inhibitors, dose response, selectivity assay for P. falciparum G6PD inhibitor project, biochemical, fluorescence (AID 504792); type: functional
Glucose-6-phosphate 1-dehydrogenase, sequence (P11413 whole entry): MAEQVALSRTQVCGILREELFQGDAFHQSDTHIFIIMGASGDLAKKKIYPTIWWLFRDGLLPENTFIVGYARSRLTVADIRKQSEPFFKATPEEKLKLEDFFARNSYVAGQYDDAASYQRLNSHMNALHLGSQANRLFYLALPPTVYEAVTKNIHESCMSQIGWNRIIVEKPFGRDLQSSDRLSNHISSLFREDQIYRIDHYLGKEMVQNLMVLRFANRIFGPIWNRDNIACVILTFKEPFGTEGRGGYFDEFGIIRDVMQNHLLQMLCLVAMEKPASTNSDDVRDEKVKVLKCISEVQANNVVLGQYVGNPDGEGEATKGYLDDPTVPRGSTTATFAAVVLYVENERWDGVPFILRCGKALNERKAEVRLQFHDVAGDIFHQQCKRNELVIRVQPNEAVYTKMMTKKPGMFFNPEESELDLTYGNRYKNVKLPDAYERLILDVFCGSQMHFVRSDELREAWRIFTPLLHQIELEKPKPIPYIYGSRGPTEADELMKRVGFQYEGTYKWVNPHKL

[16] = biological target: T3, Heat shock factor protein 1 (Mus musculus, UniProt P38532); assay: HSF1 potentiators in luciferase reporter cells, confirmation, cell-based, NIH3T3, luminescence, dose retest (AID 435004); type: functional;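 note: stress induced by proteasome inhibitor MG132 added 30 min after compound; luciferase reporter driven by HSF1 response element in NIH3T3 cells; actives raise luminescence as potentiators of the MG132 stress response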
T3 sequence (P38532 whole entry): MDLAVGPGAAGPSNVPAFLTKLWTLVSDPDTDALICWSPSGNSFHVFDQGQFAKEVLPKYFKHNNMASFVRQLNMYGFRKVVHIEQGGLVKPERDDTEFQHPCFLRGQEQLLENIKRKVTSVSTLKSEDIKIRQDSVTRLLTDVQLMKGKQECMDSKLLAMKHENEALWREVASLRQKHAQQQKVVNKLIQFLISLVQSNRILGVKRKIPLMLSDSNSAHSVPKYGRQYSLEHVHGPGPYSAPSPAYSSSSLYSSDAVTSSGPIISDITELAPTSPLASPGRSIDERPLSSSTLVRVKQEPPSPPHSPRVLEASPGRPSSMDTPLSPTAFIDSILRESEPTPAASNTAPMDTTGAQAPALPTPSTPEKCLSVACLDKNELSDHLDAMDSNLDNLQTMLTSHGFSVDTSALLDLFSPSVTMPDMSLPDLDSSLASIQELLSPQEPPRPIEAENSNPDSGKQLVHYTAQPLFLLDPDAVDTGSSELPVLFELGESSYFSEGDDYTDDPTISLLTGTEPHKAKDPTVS

[17] = biological target: FAD-linked sulfhydryl oxidase ALR (Homo sapiens, UniProt P55789); assay: inhibitors of human ALR sulfhydryl oxidase, dose response, biochemical, H2O2 detection, luminescence, cherry-pick (AID 493248)
FAD-linked sulfhydryl oxidase ALR, sequence (P55789 whole entry): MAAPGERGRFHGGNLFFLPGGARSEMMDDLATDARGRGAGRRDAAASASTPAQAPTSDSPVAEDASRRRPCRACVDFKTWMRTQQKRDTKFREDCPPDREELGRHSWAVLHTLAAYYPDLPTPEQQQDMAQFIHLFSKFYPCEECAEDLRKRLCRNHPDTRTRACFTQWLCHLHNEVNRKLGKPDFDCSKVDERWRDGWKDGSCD

[18] = Luminescence Cell-Based Dose Retest to Confirm Inhibitors of Cancer Stem Cells. [Related pubchem assays (depositor defined):AID2717, AID2721]; type: functional; details: Homo sapiens
[19] = NIH-3T3 fibroblast cytotoxicity, dose response, cytotoxicity control, cell-based, fluorescence, Alamar Blue, secondary assay (AID 2327); type: functional;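 note: NIH-3T3 mouse fibroblasts cultured with fluconazole at 8 µg/mL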
[20] = C. albicans growth with fluconazole, confirmation, fluorescence, retest (AID 2467); type: functional, cell-based
[21] = system: Vero; assay: cells; type: functional; details: Chlorocebus sabaeus
[22] = HepG2 cell cytotoxicity, dose response, cytotoxicity control, cherry-picked samples (AID 1159577); type: functional, cell-based
[23] = P. falciparum Dd2 growth inhibitors, dose response, SYBR Green, cherry-picked samples (AID 1159567); type: functional, cell-based

O=C(Cc1ccc(Br)cc1)Nc1ncc([N+](=O)[O-])s1
EC50 [1]: > 60 µM (not active)
IC50 [2]: 6.55 µM (active)
EC50 [3]: 3.15 µM (active)
IC50 [4]: 7.9 µM (inactive)
IC50 [5]: > 20 µM (inactive)
EC50 [6]: 0.553 µM (active)
IC50 [7]: > 20 µM (inactive)
EC50 [8]: > 20 µM (inactive)

Cc1cc(C(=O)CCl)c(C)n1-c1c(C)n(C)n(-c2ccccc2)c1=O
CC50 [9]: > 40 µM (active)

NC1=NC2(CCN(Cc3ccccc3)CC2)n2c(nc3ccccc32)N1
IC50 [10]: 27.1 µM (inactive)
EC50 [11]: 0.299 µM (active)

Cc1sc(NC(=S)NC(=O)c2ccc(C(C)(C)C)cc2)c(C#N)c1C
CC50 [12]: 46.8 µM (active)
IC50 [13]: 13.9 µM (active)

COC(=O)c1ccc(CSc2nnc(CNC(=O)COc3ccc(Cl)cc3)o2)o1
IC50 [14]: 21.4 µM (inactive)

CC1(OC(=O)C2CCCC2)C(=O)C=C2C=C(c3ccsc3)N(CC3CC3)C=C2C1=O (configuration not stated)
IC50 [15]: 64.3 µM (inactive)

Cc1ccc(C(=O)NC(=C(Cl)Cl)S(=O)(=O)c2ccc(Cl)cc2)cc1
EC50 [16]: 7.82 µM (active)
IC50 [2]: 3.42 µM (active)
EC50 [3]: 2.2 µM (active)
IC50 [4]: 5.03 µM (inactive)
IC50 [5]: > 20 µM (inactive)
IC50 [7]: > 20 µM (inactive)
EC50 [8]: > 20 µM (inactive)

CC1(C)CN(c2ccccc2)N(C(=O)c2ccc(C#N)cc2)C1=O
AC50 [17]: 1.72 µM (active)
IC50 [15]: > 80 µM (inactive)
AC50 [18]: 3.56 µM (active)
EC50 [19]: 4.88 µM (active)
EC50 [20]: > 38 µM (not active)

Cc1c(CCO)c(=O)[nH]n1C(=O)c1c(F)cccc1F
CC50 [21]: > 25 µM (active)
IC50 [13]: 15.4 µM (active)

CCOc1ccccc1Nc1nnc(SC(C)C(=O)Nc2nc(-c3ccccc3)cs2)s1 (configuration not stated)
IC50 [13]: > 12.5 µM (active)

CCOc1ccc(N(CC(=O)N2CCC(Cc3ccccc3)CC2)S(C)(=O)=O)cc1
CC50 [9]: > 40 µM (active)

COc1ccc(C2c3c(nc[nH]c3=O)Oc3nc[nH]c(=O)c32)cc1
IC50 [14]: 2.87 µM (active)

CN(C(=O)CCN1C(=O)/C(=C/c2ccccc2)SC1=S)C1CCS(=O)(=O)C1 (configuration not stated)
CC50 [21]: 21.2 µM (active)

CN(C(=O)c1ccc(NC(=O)Cc2cccc(NC(=O)C3CCN(C(=O)c4ccccc4)CC3)c2)cc1)C1CC1
IC50 [14]: 15.3 µM (inactive)

CC(C)NC(=O)N1CCCCN2[C@H](CO)[C@@H](c3ccc(C#C[C@@H](C)O)cc3)[C@@H]2C1
AC50 [22]: > 39 µM (inactive)
AC50 [23]: 27.8 µM (active)

Cc1cccc(-c2ccc([C@@H]3[C@@H](CO)N4CCCCN(CCC(F)(F)F)C[C@H]34)cc2)c1
AC50 [22]: 8.79 µM (active)
AC50 [23]: 0.801 µM (active)

O=C(C[C@H]1C[C@@H]2c3cc(NC(=O)c4cccnc4)ccc3O[C@@H]2[C@@H](CO)O1)NCc1ccc(Oc2ccccc2)cc1
AC50 [22]: > 39 µM (inactive)
AC50 [23]: 13.7 µM (active)

COc1ccc(S(=O)(=O)N2CCC3(CC2)CN(C(=O)CN(C)C)[C@@H](CO)c2c3c3ccc(OC)cc3n2C)cc1
AC50 [22]: 18.8 µM (active)
AC50 [23]: 2.53 µM (active)
